Source: patent publication EP0006352A1, “Hydantoins and thiohydantoins, process for their preparation and pharmaceutical compositions containing them” (BEECHAM GROUP PLC, priority 1978, dated 1980)

Legend:
[1] = test system: 5-hydroxytryptamine induce bronchoconstriction; assay: Inhibition of 5-hydroxytryptamine induced bronchoconstriction in the anaesthetised, artificially respired guinea-pig (Konzett-Rossler preparation); format: in vivo; details: Cavia porcellus, iv
Excerpt: (a) The Compounds were examined for their ability to inhibit 5-hydroxytryptamine induce bronchoconstriction in the anaesthetised, artificially respired guinea-pig (Konzett-Rossler preparation).

[2] = test system: bronchoconstriction induced by an histamine aerosol; assay: Protection of conscious guinea-pigs against histamine aerosol induced bronchoconstriction (Herxheimer test); format: in vivo; details: 10 gg/ml by aerosol
Description: (b) The Compounds were also examined for their ability to protect conscious guinea-pigs against bronchoconstriction induced by an histamine aerosol (Herxheimer test). The Compounds were administered by aerosol.
The aerosol was produced in the following manner.
Water soluble compounds were dissolved in normal saline at a concentration of 1 mg/ml. Water insoluble compounds were dissolved in ethanol at a concentration of 10 mg/ml. These solutions were then diluted to the test concentrations with normal saline.

CCCCCCC(C)(O)CCN1C(=O)N(CC#N)C(=O)C1CC=CCCCC(=O)OCC (stereo not drawn) [Compound 2, 1-(3'-hydroxy-3'-methyl-n-nonyl)-3-cyanomethyl-5-(6"-ethoxycarbonyl-n-hex-2"-enyl) hydantoin]
ED50 [1]: 1.1 µg/kg | increase in pre-convulsive coughing time ([2]; 2 minutes after dosing): 178% | increase in pre-convulsive coughing time ([2]; after 10 minutes): 39%
